What was measured:
[1] = I(a) concentration in Cremophor EL:ethanol composition (HPLC); type: physicochemical; conditions: 1:60 w/w I(a):CrEL, ethanol 1:1 v/v to CrEL, room temperature
Description: One to sixty (1:60) ratio by weight of compound I(a) to CrEL was mixed into a glass vial and stirred for about one hour at room temperature to allow solubilization. Dehydrated ethanol USP was then added at a ratio (v/v) one to one (1:1) to CrEL. The mixture was stirred for half hour to ensure the dissolution of the mixture. The final solution was then tested by HPLC to verify compound I(a) concentration.

[2] = Amount of I(a) dissolved in Vitamin E TPGS composition (HPLC assay of centrifugate); type: physicochemical; conditions: 15:100 w/w I(a):Vitamin E TPGS, 45° C., water 8 ml per 100 mg Vitamin E, centrifuged
Description: A stir bar was then added and the solution was continuously mixed while at 45° C. for a minimum of 2 hours to allow full saturation of the product. […] The mixture was then cooled to room temperature, and centrifuged to separate the undissolved material. The centrifugate was assayed for the amount of compound I(a) using HPLC.

[3] = tested on: Healthy PBMC (Peripheral Blood Mononuclear Cells); test: Cell viability of healthy PBMC
Description: (§1) All cell lines were plated in black, tissue culture treated, 96 well plates at a cell density of 1×10^5 celis/mL (1×10^4 cells/well). Cells were allowed 24 h to attach to the plate prior to being dosed with drug. […] Cells were allowed to incubate for 48 or 72 h. Following incubation cells were stained with Alamar Blue such that the final concentration of Alamar Blue in the test well was 10%. Cells were stained for 2 h and then fluorescence was measured on a Molecular Devices Analyst GT multimode plate reader using an excitation filter of 530/25 nm and an emission filter of 580/10 nm and a 561 nm dichroic mirror. Cell viability was expressed as a percentage of untreated control cells. Data are expressed as mean±standard error and are the average of four independent cell preparations.
(§2) Healthy PBMC (Peripheral Blood Mononuclear Cells) were treated similarly to the above tumour cell line tests.

[4] = Cell viability of healthy PBMC
Description: as §1, §2

[5] = tested on: A549, BxPC-3, HeLa, LoVo, MCF-7 and PC-3 cells; test: In vitro testing on various tumour cell lines (Alamar Blue cell viability); type: cell-based; conditions: after 48 hours
Description: (§3) A549 (CCL-185), BxPC-3 (CRL-1687), HeLa (CCL-2), LoVo (CCL-229), MCF-7 (HTB-22), and PC-3 (CRL-1435) cells were purchased from ATCC (Manassas, Va.). Alamar Blue was purchased from Invitrogen Canada Inc. (Burlington, ON). All other tissue culture and reagent grade materials were purchased from either VWR (Mississauga, ON) or Sigma Aldrich (Oakville, ON).
(§4) All cell lines were maintained at 37° C. in a CO2 cell culture incubator with 5% CO2 and 95% humidity. A549, Lovo, and PC-3 cells were cultured in F-12K media, BxPC-3 cells were culture in RPMI-1640 media, and HeLa and MCF-7 cells were cultured in Eagle's Minimum Essential Media (MEM) with […]. All cell culture media was supplemented with 10% fetal bovine serum (FBS), […] Penicillin, 0.1 mg/mL Streptomycin, 2.5 μg/mL Amphotericin B, and 50 μg/mL Gentamycin. In addition, MEM media for MCF-7 cells also contained 0.01 mg/mL bovine insulin.

[6] = tested on: colorectal tumour cell line; test: In vitro tumour cell line testing, colorectal; type: cell-based; conditions: for effect on colorectal tumour cell line: after 48 hours
Description: as §3, §4

lung tumour cells = test: In vitro tumour cell line testing, lung; type: cell-based; conditions: after 72 hours
Description: as §3, §4

[7] = tested on: cervical tumour cell line; test: In vitro tumour cell line testing, cervical; type: cell-based; conditions: for effect on cervical tumour cell line: after 48 hours
Description: as §3, §4

[8] = tested on: prostate tumour cell line; test: In vitro tumour cell line testing, prostate; type: cell-based; conditions: for effect on prostate tumour cell line: after 48 hours
Description: as §3, §4

[9] = tested on: pancreas tumour cell line; test: In vitro tumour cell line testing, pancreas; type: cell-based; conditions: for effect on pancreas tumour cell line: after 48 hours
Description: as §3, §4

Structure (SMILES)	amount of I(a) contained in resultant formulation [1] [mg/mL]	amount of I(a) contained in resultant formulation [2] [mg/mL]	selectivity for cancer cells over healthy cells ([3]; PBMC tests compared to tumour cell line tests)	PBMC cell death compared to narciclasine ([3]; in DMSO, 48 and 72 hours)	viability [4] [%]	viability at 2.265 µM [4] [%]	anti-cancer effect against a wide variety of cancers [5]	effect on colorectal tumour cell line [6]	effect against colorectal cancer ([6]; after 72 hours)	results on lung tumour cells (lung tumour cells)	effect on cervical tumour cell line [7]	results on cervical tumour cells ([7]; after 72 hours)	effect on prostate tumour cell line [8]	results on prostate tumour cells ([8]; after 72 hours)	effect on pancreas tumour cell line [9]	effect against pancreas cancer ([9]; after 72 hours)
CC/C=C\C/C=C\C/C=C\C/C=C\C/C=C\C/C=C\CCC(=O)O[C@H]1C=C2c3cc4c(c(O)c3C(=O)N[C@H]2[C@H](O)[C@@H]1O)OCO4 [Compound I(a), Narciclasine 2-Hydroxy DHA Conjugate]	9.9	1.8 to 1.9	selectively kill cancer cells at a much higher percentage than healthy cells	small increase of cell death	~90	> 60	strong anti-cancer effect	strong effect	works well	good results	strong effect	good results	strong effect	good results	strong effect	works well
O=C1N[C@@H]2C(=C[C@H](O)[C@@H](O)[C@H]2O)c2cc3c(c(O)c21)OCO3 [narciclasine, reference compound]	–	–	–	–	–	–	strong anti-cancer effect	strong effect	–	–	strong effect	–	strong effect	–	strong effect	–
